Laboratory results: patent publication US9545400B2, “Analgesic composition including opioid analgesic and P7C3” (CHONNAM NATIONAL UNIVERSITY HOSPITAL, priority 2014, dated 2017)

Columns and labels:
Sprague-Dawley rats [1] = assay: Formalin-induced pain test (flinching) after intrathecal administration; type: in vivo, rat; details: for ED50 (dose which decreases the formalin response of the control by 50%), Phase 1 / ED50 (dose which decreases the formalin response of the control by 50%), Phase 2: drug alone, intrathecal 10 min before formalin injection, rat; for ED50 (dose which decreases the formalin response of the control by 50%), Phase 1: Phase 1 (0 to 9 min); for ED50 (dose which decreases the formalin response of the control by 50%), Phase 2: Phase 2 (10 to 60 min); for Ratio of ED50 in Phase 1 to ED50 in Phase 2: formalin experiment; for Ratio of ED50 in Phase 1 to ED50 in Phase 2 / Flinching reactions, dose-response (percentage of control) / Number of flinches over time at the highest dose: intrathecal; for Flinching reactions, dose-response (percentage of control): Phase 1 and Phase 2, FIGS. 2A and 2B; for Number of flinches over time at the highest dose: FIGS. 1A and 1B
Method: (§1) After permission for all the procedures in the experimental protocol was obtained by The Institutional Animal Care and Use Committee of Chonnam National University, experiments were performed. Adult male Sprague-Dawley rats (250 to 300 g) were used as the experimental subject, four rats per group were housed and kept in a well-controlled vivarium, maintained at 22° C. for 12 hours, with an alternating light/dark cycle and were given food and water ad libitum. Rats were under sevoflurance anesthesia in order to be implanted with an intrathecal catheter, and placed in a stereotaxic apparatus A polyethylene catheter lower end portion was intrathecally inserted so as to be positioned within the lumbar extension portion through an incision in the cisternal membrane. Then, the catheter upper end portion was secured at the skull. After the catheter implantation, rats were again housed in individual cages. After the intrathecal catheter implantation, rats showing movement disorder were excluded in the experiment, and killed by administering an overdose of sevoflurane. Rats showing normal responses were again housed in individual cages in the vivarium, and given a recovery time of 5 days.
A formalin experiment was used as a pain evoking experimental tool. 50 μL of a 5% formalin solution was injected subcutaneously into the subcutaneous tissue of a hind paw of the rat. […] The number of flinches was counted for 1 min periods at 1 and 5 min and at 5 min intervals from 10 to 60 min after the injection. […] Therefore, the phase from 0 to 9 minutes after the injection of formalin was defined as Phase 1, and the phase from 10 to 60 minutes was defined as Phase 2. After the behavior study, rats were administered an overdose of sevoflurane, and then killed.
The effect of the experimental drug for the formalin injection was tested for 5 days after the intrathecal catheter implantation. After acclimatization for 15 to 20 min in a restraint cylinder (10×10×30 cm), the rats were allocated to receive one of the experimental drugs, and tested only once. The same volume of the vehicle (saline, 0.1 N NaOH or DMSO) was administered to a control. The total number of rats used in the nociceptive behavioral study was 139 with 6 to 8 rats per group. The investigators were blind as to the administration amount and type of experimental drug used in each rat.
Saline, 10, 30, and 100 μg of P7C3 (Tocris Cookson Ltd., Bristol, UK), and 1, 3, 10, and 30 μg of morphine sulfate (Sigma-Aldrich, St. Louis, Mo., USA) were intrathecally administered 10 minutes before formalin injection, and analgesic effects (flinching number analysis) were investigated according to the aforementioned pain experiment. The drug was intrathecally administered by using a manually gear operated syringe pump. All the drugs were administered in an amount of 10 μl, and an additional 10 μl of standard saline was administered in order to wash out the catheter.
The dose (ED50), which decreases the formalin response of the control for P7C3 and morphine by 50%, was determined at Phase 1 and the Phase 2, respectively.
And then, ED50 of the mixed drug was obtained. The experiment was performed individually in Phase 1 and Phase 2.
Data obtained in Examples 1 and 2 were expressed as means±SEM. The time response data are presented as the number of flinches. The dose-response data are presented as a percentage of the control. Percentage of the control=(total number of flinches in drug administration group in Phase 1[2]/number of flinches of control in Phase 1[2])×100

Sprague-Dawley rats [2] = assay: Evaluation of response of intrathecal administration of P7C3 (motor function and pinna/corneal reflexes); type: in vivo, rat; details: highest dose (100 μg) intrathecal, 5 rats
Method: as §1, with “After the intrathecal catheter implantation, rats showing movement disorder were excluded in the experiment, and killed by administering an overdose of sevoflurane. Rats showing normal responses were again housed in individual cages in the vivarium, and given a recovery time of 5 days.” left out
In order to detect undesirable behaviors induced by P7C3, the highest dose (100 μg) was intrathecally administered to 5 rats of each individual group. Motor function was assessed by the placing-stepping reflex and the righting reflex. […] The latter was evaluated by placing the rat horizontally with the rat's back on the table. […] The central nervous system was evaluated through pinna and corneal reflexes. […]

Row | Compound | ED50 (dose which decreases the formalin response of the control by 50%), Phase 1 (Sprague-Dawley rats [1]) [µg] | ED50 (dose which decreases the formalin response of the control by 50%), Phase 2 (Sprague-Dawley rats [1]) [µg] | Ratio of ED50 in Phase 1 to ED50 in Phase 2 (Sprague-Dawley rats [1]) | Flinching reactions, dose-response (percentage of control) (Sprague-Dawley rats [1]) | Number of flinches over time at the highest dose (Sprague-Dawley rats [1]) | Normality of behavior: placing-stepping, righting, pinna and corneal reflexes (Sprague-Dawley rats [2])
1 | CN1CC[C@]23c4c5ccc(O)c4O[C@H]2[C@@H](O)C=C[C@H]3[C@H]1C5 [Morphine, (5α,6α)-7,8-didehydro-4,5-epoxy-17-methylmorphinan-3,6-diol, reference compound] | 8.8 | 3.9 | two times larger | suppressed flinching reactions dose-dependently | exhibited potential analgesic effects throughout the entire observation period | 
2 | OC(CNc1ccccc1)Cn1c2ccc(Br)cc2c2cc(Br)ccc21 (centres unmarked) [P7C3, 1-(3,6-dibromo-9H-carbazol-9-yl)-3-(phenylamino)propan-2-ol] | 31.8 | 31 | similar | suppressed flinching reactions dose-dependently | exhibited potential analgesic effects throughout the entire observation period | all normal (present)
